Data set [1] deals with GM-CSFR/JAK2/STAT5 pathway in csTF-1 cells. As to the kind of experiment: csTF-1 cell-based reporter assay. The settings on record: Homo sapiens, GM-CSF at 2 ng/mL, beta-lactamase reporter, read-out: EC50, inhibition of GM-CSF stimulated reporter activity. The method, then:
After 16 hr incubation, cells were seeded at 2×10^5 cell/well in 50 μL volume, into Costar, clear bottom, 96-well assay plates. Serial dilutions of compounds were added to the plates with final DMSO concentration at 0.5% and GM-CSF at 2 ng/mL and the plates were then incubated at 30° C. and 5% CO2 for 4 hrs. The plates were brought to room temperature before adding Substrate Mixture according to manufacturer's protocol (Invitrogen, Catalog #K1085). The assay plates containing the substrate mixture were incubated in the dark at room temperature for 2 hrs. Blue and green fluorescence were measured with excitation at 409 nm and emission at 460 nm (for blue) and excitation at 409 nm and emission at 530 nm (for green) using Spectra Max Gemini EM.
On the technique in general: In a reporter assay the amount or activity of a reporter protein is the signal.

Data set [2] addresses T1, CYP2B6 (Homo sapiens, UniProt P20813).
T1 sequence (P20813 1-491): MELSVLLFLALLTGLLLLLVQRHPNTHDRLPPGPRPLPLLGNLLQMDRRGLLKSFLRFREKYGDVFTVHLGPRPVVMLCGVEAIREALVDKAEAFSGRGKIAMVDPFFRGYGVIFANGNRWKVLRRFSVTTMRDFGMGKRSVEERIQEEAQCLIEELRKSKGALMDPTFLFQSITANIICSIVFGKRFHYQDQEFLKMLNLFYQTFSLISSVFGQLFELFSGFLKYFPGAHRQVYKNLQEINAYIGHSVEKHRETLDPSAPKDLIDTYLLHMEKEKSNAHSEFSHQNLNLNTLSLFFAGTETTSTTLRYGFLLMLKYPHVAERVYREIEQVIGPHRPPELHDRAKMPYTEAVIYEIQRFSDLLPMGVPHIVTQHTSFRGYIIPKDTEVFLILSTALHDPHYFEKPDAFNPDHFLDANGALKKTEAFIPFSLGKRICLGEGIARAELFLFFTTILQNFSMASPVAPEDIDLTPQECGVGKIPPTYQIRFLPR
As to the kind of experiment: CYP450 inhibition in human liver microsomes. (In general: Liver microsomes are vesicles of endoplasmic reticulum, rich in cytochrome P450 enzymes.)

Data set [3] has as its target T2, phosphodiesterase PDE5 (Homo sapiens, UniProt O76074).
T2 construct: from tissue; host or cells: human platelets
As to the kind of experiment: Inhibition of phosphodiesterase PDE5. The settings on record: human platelets; read-out: IC50 against phosphodiesterase PDE5. In kind it is biochemical. The method, then:
Acta 1976, 429, 485-497 and Nicholson et al., Trends Pharmacol. Sci. 1991, 12, 19-27. Human platelets were used in this assay. The final DMSO concentration in the assay was about 1%. The assay was pre-incubated at 25° C. for 15 min and then incubated at 25° C. for 20 min in an incubation buffer (50 mM Tris-HCl, pH 7.5, 5 mM MgCl2). The assay was quantitated by measuring the amount of [^3H]guanosine.

Data set [4] has as its target T3, CYP1A2 (Homo sapiens, UniProt P05177).
T3 sequence (P05177 1-516): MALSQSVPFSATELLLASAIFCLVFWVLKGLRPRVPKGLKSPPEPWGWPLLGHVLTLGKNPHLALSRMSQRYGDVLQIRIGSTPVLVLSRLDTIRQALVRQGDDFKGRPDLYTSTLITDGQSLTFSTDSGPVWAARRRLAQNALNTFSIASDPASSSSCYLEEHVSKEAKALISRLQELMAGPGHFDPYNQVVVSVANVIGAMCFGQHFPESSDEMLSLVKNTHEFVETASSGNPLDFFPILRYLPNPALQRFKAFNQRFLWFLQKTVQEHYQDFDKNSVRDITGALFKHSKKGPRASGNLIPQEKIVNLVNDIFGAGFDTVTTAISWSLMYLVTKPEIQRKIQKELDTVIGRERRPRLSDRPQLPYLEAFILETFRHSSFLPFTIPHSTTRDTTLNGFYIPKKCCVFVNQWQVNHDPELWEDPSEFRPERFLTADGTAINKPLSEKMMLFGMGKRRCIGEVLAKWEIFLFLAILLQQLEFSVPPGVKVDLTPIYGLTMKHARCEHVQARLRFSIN
Description: CYP450 inhibition in human liver microsomes.

For data set [5], the target named is CYP2D6 (Homo sapiens, UniProt P10635). Description: CYP450 inhibition in human liver microsomes.
Data set [6] addresses T4, CYP2C8 (Homo sapiens, UniProt P10632).
T4 sequence (P10632 1-490): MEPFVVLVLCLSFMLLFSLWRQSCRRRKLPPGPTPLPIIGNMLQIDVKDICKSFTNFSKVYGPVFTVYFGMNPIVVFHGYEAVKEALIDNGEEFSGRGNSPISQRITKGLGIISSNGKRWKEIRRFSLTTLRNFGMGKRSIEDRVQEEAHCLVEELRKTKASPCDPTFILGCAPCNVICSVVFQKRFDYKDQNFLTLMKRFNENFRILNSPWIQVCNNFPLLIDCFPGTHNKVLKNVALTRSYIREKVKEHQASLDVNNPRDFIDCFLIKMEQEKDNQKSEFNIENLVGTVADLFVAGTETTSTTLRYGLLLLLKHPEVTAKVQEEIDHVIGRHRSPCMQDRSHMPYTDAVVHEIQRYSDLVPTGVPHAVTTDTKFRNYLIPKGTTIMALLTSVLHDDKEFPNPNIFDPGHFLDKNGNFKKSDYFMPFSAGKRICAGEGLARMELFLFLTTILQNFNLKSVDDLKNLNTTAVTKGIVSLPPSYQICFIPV
As to the kind of experiment: CYP450 inhibition in human liver microsomes.

Data set [7] addresses T5, melatonin MT (Homo sapiens, UniProt P48039).
T5 construct: expressed in transfected cells; host or cells: CHO-K1
Description: Melatonin MT GTPγS binding assay. In kind it is biochemical. The settings on record: GTPγS bound relative to 2-iodomelatonin response, CHO-K1 cells; read-out: IC50 against melatonin. The method, then:
[…] CHO-K1 cells Chinese hamster ovary were used in this assay. The final DMSO concentration in the assay was about 0.4%. The assay mixture was incubated at 30° C. for 30 min in an incubation buffer (20 mM HEPES, pH 7.4, 100 mM NaCl, 10 mM MgCl2, 1 mM DTT, and 1 mM EDTA). The assay was quantitated by measuring the amount of [^35S]GTPγS bound relative to 2-iodomelatonin response.
On the technique in general: GTPγS resists hydrolysis and so accumulates on activated G proteins.

Data set [8] can be described thus: Pharmacokinetic studies in monkeys. Particulars: for AUCall / Cl-obs / Cmax: monkeys.
Description: (§1) Three male cynomolgus monkeys were fasted overnight and through four hours postdose. Two 100 μL aliquots of each dosing formulation were taken predose. Three monkeys were given a single gavage dose of a test compound at 10 mg/kg, followed by an approximately 10.0 mL tap water flush of the gavage tube. After a 1 week washout period, two of the three monkeys received a single IV bolus dose of a test compound at 1 mg/kg in a peripheral vein followed by approximate 1.0 mL saline flush.
The nature of data set [9]: in vivo. The settings on record: male, cynomolgus monkey.
Description: as §1
For data set [10] the following is noted: cynomolgus monkey, in vivo.
Description: as §1
The mark [11] stands for this setting: Racemic administered IV 1 mg/kg, chiral analysis, label = analyte.
The mark [12] stands for this setting: Racemic administered PO 10 mg/kg, chiral analysis, label = analyte.
Where [13] appears, read: compound administered IV 1 mg/kg, analyte = compound administered.
The mark [14] stands for this setting: compound administered PO 10 mg/kg, analyte = compound administered.

The structures appear in SMILES notation. A value given as a limit tells only on which side of the number the result lay.

Chain of CYP2D6 (P10635 whole entry): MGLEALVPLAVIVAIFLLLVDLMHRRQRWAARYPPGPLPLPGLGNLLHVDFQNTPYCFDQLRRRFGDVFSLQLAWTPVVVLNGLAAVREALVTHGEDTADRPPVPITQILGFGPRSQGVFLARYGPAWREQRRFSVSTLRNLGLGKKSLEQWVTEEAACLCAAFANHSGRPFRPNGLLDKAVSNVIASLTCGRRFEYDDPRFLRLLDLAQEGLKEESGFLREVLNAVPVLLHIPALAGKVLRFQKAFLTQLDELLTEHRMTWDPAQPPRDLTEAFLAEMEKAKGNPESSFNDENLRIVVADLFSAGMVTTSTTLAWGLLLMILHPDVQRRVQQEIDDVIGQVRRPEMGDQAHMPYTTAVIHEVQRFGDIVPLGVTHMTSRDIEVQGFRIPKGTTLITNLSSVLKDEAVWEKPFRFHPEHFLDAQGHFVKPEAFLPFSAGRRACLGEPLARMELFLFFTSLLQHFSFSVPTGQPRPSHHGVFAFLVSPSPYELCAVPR
T5 sequence (P48039 whole entry): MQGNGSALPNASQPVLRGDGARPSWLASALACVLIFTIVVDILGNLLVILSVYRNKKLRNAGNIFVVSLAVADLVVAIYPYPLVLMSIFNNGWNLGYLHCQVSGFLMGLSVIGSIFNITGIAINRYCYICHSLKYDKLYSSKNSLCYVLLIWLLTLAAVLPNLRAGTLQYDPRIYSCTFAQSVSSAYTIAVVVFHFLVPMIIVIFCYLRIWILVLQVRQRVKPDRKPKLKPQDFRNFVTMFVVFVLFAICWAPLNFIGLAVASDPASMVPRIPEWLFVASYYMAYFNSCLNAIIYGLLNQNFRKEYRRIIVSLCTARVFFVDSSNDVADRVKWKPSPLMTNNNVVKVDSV

For `Cc1cc(Nc2nc(C(O)c3ccc(F)cc3)nc3ccccc23)n[nH]1` (racemic) [Racemate], the EC50 in [1] amounted to 70 nM. The IC50 in data set [2] is more than 40 µM; in [3], 9.34 µM; in data set [4] it was less than 310 nM; in data set [5], more than 40 µM; in data set [6] it was 23.1 µM; in [7] it was 9.75 µM. The molecule also showed a bioavailability in data set [8] (male, cynomolgus monkey, in vivo, 10 mg/kg) of more than 100%. Besides, the AUCall stood at 2.19 µM·h in data set [8] (setting [11]), 46.20 µM·h in [8] (setting [12]), 2.19 µM·h in data set [8] (setting [13]) and 46.20 µM·h in [8] (setting [14]). The Cl-obs in [8] (setting [11]) and in [8] (setting [13]) was 21.27 mL/min/kg in each case. In addition, the maximum concentration (Cmax) in data set [8] (setting [12]) and in [8] (setting [14]) was 5.76 µM in each case.
`Cc1cc(Nc2nc([C@H](O)c3ccc(F)cc3)nc3ccccc23)n[nH]1` [(R)(−)]: the concentration giving a half-maximal response (EC50) in data set [1] stood at 75 nM. The IC50 is more than 40 µM in [2], 1700 nM in data set [4], more than 40 µM in [5] and 26.9 µM in data set [6]. Further, the bioavailability in data set [9] is more than 100%. Further, the “share of the Cmax and AUC values determined for the racemic compound” value in [10] (male) is “over 85%”.
As for `Cc1cc(Nc2nc([C@@H](O)c3ccc(F)cc3)nc3ccccc23)n[nH]1` [(S)(+)], the EC50 in data set [1] is 38 nM. Also, the IC50 in data set [2] was more than 40 µM; in data set [4], less than 310 nM; in data set [5], more than 40 µM; in [6], 22.7 µM. The molecule also showed a bioavailability in data set [9] of 89%. Also, the “enantiomers present in plasma” value in data set [10] (po) is given as “both enantiomers were present in plasma in almost equal proportions”.

Usually EC50 stands for the concentration at which the effect is half-maximal. In general, IC50 refers to the concentration needed to halve the response being measured. The bioavailability is the share of a dose that reaches the circulation, judged against a reference dose that is usually intravenous. The Cmax is the highest concentration seen after dosing.

Values taken from US8952020B2, “Optically active pyrazolylaminoquinazoline, and pharmaceutical compositions and methods of use thereof” (Ambit Biosciences Corp., priority 2010, dated 2015).
